# Test results taken from ChEMBL document CHEMBL1201862, “PubChem BioAssay data set” (2004).
# The source made the active and inactive calls.
# What was measured:
# [1] = molecular target: Dual specificity protein phosphatase 3 (Homo sapiens, UniProt P51452); assay: VHR1 inhibitor Ki determination, SAR follow-up, biochemical, colorimetric (AID 2004)
# [2] = molecular target: Melanin-concentrating hormone receptor 1 (Homo sapiens, UniProt Q99705); assay: Fluorescence-based counterscreen for antagonists of the G-protein coupled receptor 7 (GPR7): cell-based high throughput dose response assay to identify antagonists of the melanin-concentrating hormone receptor 1 (MCHR1).; assay type: functional
# [3] = Luminescence Cell-Based Dose Retest to Confirm Inhibitors of Cancer Stem Cells. [Related pubchem assays (depositor defined):AID2717, AID2721]; assay type: functional; settings: Homo sapiens
# [4] = molecular target: Neurotensin receptor type 1 (Homo sapiens, UniProt P30989); assay type: functional;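 further: Image-based confirmatory dose-response assay measuring agonist activity at NTR1; NTR1-expressing U2OS osteosarcoma cells imaged for beta-arrestin GFP spot formation; agonist potency where compounds increase beta-arrestin recruitment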
# [5] = NIH-3T3 fibroblast cytotoxicity, dose response, cytotoxicity control, cell-based, fluorescence, Alamar Blue, secondary assay (AID 2327); assay type: functional;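 further: NIH-3T3 mouse fibroblasts cultured with fluconazole at 8 µg/mL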
# Fatty acid synthase [6] = molecular target: T1, Fatty acid synthase (Homo sapiens, UniProt P49327); assay: FAS thioesterase domain inhibitors, dose response, biochemical, endpoint fluorescence intensity, uHTS hits (AID 624327); assay type: functional;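 further: fluorescence from hydrolysis of an O-methyl fluorescein acyl ester substrate by the enzyme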
# [7] = C. albicans growth with fluconazole, confirmation, fluorescence, retest (AID 2467); assay type: functional, cell-based
# [8] = inhibitors of Bluetongue virus cytopathic effect, confirmation, arbovirus, BSR cells (AID 1250); assay type: functional;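 further: protection from viral cytopathic effect measured as cell viability by ATP luminescence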
# Aminopeptidase N = Aminopeptidase N (Plasmodium falciparum FcB1/Columbia, UniProt O96935); assay: P. falciparum M1AAP inhibitors, biochemical, fluorogenic H-Leu-NHMec substrate, 1536-well (AID 1445); design: species or system Plasmodium falciparum 3D7, 3D7
# [9] = HIV-1 Env-mediated cell fusion inhibitors, dose response, CCR5-tropic Env (AID 2279); assay type: functional
# Fatty acid synthase [10] = molecular target: T1, Fatty acid synthase; assay: FAS thioesterase domain inhibitors, dose response, biochemical, kinetic fluorescence intensity (AID 624326); assay type: functional;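 further: rate of fluorescence rise from hydrolysis of a fluorogenic O-methyl fluorescein ester substrate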
# [11] = molecular target: Cyclin-dependent kinase 5/CDK5 activator 1 (Homo sapiens, UniProt Q00535); assay: CDK5/p35 kinase inhibitors, dose response, biochemical, cherry-picked samples, set 2 (AID 504545)
# cells [12] = assay type: functional, cell-based
# [13] = molecular target: Protein-tyrosine kinase 2-beta (Homo sapiens, UniProt Q14289);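 further: potency of inhibitors of PYK2 kinase phosphorylation of poly-GT substrate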
# [14] = molecular target: Mothers against decapentaplegic homolog 3 (Homo sapiens, UniProt P84022); assay: SMAD3 transcription factor inhibitors, dose response (AID 715); assay type: functional
# [15] = molecular target: T2, Zinc finger protein mex-5 (Caenorhabditis elegans, UniProt Q9XUB2); assay: MEX-5/TCR-2 RNA interaction inhibitors, dose response, biochemical, C. elegans, fluorescence polarization (AID 1960)
# T2 sequence (Q9XUB2 whole entry): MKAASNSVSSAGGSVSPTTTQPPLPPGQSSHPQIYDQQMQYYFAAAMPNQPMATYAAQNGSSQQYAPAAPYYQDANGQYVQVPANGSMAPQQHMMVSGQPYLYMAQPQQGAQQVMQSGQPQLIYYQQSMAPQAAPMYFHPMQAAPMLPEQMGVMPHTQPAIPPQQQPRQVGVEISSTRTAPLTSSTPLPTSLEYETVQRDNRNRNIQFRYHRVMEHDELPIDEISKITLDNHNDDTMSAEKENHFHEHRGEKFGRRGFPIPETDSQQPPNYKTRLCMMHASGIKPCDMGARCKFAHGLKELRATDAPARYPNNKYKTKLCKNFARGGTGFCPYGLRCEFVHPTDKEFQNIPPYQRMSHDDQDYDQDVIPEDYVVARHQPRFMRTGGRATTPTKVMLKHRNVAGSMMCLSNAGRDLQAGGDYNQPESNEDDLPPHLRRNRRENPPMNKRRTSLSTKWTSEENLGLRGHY
# Bcl-2-like protein 10 = Bcl-2-like protein 10 (Homo sapiens, UniProt Q9HD36); assay: displacers of TR3 peptide from Bcl-B, primary screen, selectivity assay for Bfl-1 inhibitor project, biochemical, fluorescence polarization, FITC-TR3 peptide (AID 748);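 further: fluorescence polarization from a fluorescein-labelled TR3 peptide binding purified Bcl-B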
# [16] = molecular target: T3, Trace amine-associated receptor 1 (Homo sapiens, UniProt Q96RJ0); assay: Fluorescence-based cell-based high throughput dose response assay to identify agonists of the human trace amine associated receptor 1 (TAAR1).; assay type: functional
# T3 sequence (Q96RJ0 whole entry): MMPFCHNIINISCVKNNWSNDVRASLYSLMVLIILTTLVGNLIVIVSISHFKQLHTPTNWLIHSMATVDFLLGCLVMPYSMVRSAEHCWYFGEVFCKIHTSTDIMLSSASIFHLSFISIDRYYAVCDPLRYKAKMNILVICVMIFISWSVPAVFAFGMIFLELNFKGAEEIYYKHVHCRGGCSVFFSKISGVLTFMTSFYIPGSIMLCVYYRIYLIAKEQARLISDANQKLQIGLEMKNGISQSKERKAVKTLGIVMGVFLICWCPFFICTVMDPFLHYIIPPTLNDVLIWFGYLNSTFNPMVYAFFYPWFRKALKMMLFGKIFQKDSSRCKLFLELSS
# [17] = molecular target: T4, Heat shock 70 kDa protein 1A (Homo sapiens, UniProt P0DMV8); assay: Hsp70 inhibitors, probe displacement, primary screen, biochemical, fluorescence polarization (AID 583)
# Estrogen receptor beta [18] = molecular target: T5, Estrogen receptor beta (Homo sapiens, UniProt Q92731);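 further: recombinant ER-beta bound to coactivator SRC1 peptide in presence of estradiol agonist; inhibitors block coactivator peptide binding and lower the FRET signal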
# [19] = molecular target: T6, RNA-binding protein pos-1 (Caenorhabditis elegans, UniProt G5EF15); assay: inhibitors of POS-1/mex-3 RNA binding, dose response, biochemical, fluorescence polarization (AID 1964);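 further: purified POS-1 fused to maltose binding protein made in E. coli; potency of compounds blocking POS-1 binding to fluorescent RNA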
# T6 sequence (G5EF15 whole entry): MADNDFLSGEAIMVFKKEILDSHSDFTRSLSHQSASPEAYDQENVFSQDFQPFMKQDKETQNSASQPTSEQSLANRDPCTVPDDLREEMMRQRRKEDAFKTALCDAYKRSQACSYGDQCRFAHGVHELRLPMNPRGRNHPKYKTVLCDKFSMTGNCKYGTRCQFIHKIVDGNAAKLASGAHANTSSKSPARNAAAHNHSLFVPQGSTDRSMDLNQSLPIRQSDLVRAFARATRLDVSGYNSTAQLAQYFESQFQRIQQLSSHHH
# Estrogen receptor beta [20] = molecular target: T5, Estrogen receptor beta; assay: ERβ–SRC-3 coactivator interaction inhibitors, confirmation, orthogonal assay, biochemical, ELISA, streptavidin-HRP readout (AID 1060)
# HeLa = assay: HeLa cell cytotoxicity, dose response, cytotoxicity control, 24 h, cherry-picked samples (AID 504726); assay type: functional, cell-based; settings: Homo sapiens;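 further: potency for cytotoxicity as loss of luminescence signal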
# [21] = molecular target: T3, Trace amine-associated receptor 1; assay: Counterscreen for agonists of the human trace amine associated receptor 1 (hTAAR1): Fluorescence-based cell-based high throughput dose response assay to identify hTAAR1 agonist that also desensitize TAAR1 receptor response.; assay type: functional
# Cytochrome P450 2C9 = Cytochrome P450 2C9 (Homo sapiens, UniProt P11712)
# cells [22] = assay type: functional, cell-based; remark: listed apart in the source
# [23] = molecular target: Bifunctional protein GlmU (Mycobacterium tuberculosis, UniProt P9WMN3); assay: Inhibitors of Mycobacterial Glucosamine-1-phosphate acetyl transferase (GlmU). Secondary screen.; design: species or system Mycobacterium tuberculosis H37Rv
# [24] = molecular target: T4, Heat shock 70 kDa protein 1A; assay: Hsp70 inhibitors, biochemical, TR-FRET (AID 786)
# ORF 73 = ORF 73 (Human herpesvirus 8, UniProt O40947); assay: inhibitors of C-LANA binding to LBS DNA, dose response, biochemical, fluorescence polarization, cherry-picked samples (AID 504725); design: species or system Human gammaherpesvirus 8;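 further: fluorescence polarization of a labeled DNA duplex reporting LANA DNA binding; potency is for inhibitors that block LANA binding to the DNA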
# [25] = molecular target: T7, Dual specificity protein phosphatase 6 (Rattus norvegicus, UniProt Q64346); assay: MKP-3 phosphatase inhibitors, primary screen, biochemical, rat enzyme, in vitro (AID 425)
# T7 sequence (Q64346 whole entry): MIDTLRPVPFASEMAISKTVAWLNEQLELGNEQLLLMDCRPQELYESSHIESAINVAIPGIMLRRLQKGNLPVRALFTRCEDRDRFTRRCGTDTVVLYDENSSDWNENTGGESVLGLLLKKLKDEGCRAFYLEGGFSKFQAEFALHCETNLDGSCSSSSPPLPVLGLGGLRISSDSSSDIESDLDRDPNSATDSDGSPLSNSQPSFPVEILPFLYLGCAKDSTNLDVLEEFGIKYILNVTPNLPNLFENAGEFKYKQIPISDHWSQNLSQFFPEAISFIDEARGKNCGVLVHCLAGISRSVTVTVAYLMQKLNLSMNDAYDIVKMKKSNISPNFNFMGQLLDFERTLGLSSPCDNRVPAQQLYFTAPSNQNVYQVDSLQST
# Ephrin type-A receptor 4 = Ephrin type-A receptor 4 (Mus musculus, UniProt Q03137); assay: inhibitors of EphA4 binding to KYL peptide, primary screen, biochemical, colorimetric, mouse EphA4 (AID 689); assay type: functional
# [26] = molecular target: DNA (cytosine-5)-methyltransferase 1 (Homo sapiens, UniProt P26358); assay: DNMT1 methyltransferase inhibitors, confirmation, biochemical, fluorescent molecular beacon (AID 602386); assay type: functional
# [27] = molecular target: T8, Eukaryotic translation initiation factor 2-alpha kinase 3 (Homo sapiens, UniProt Q9NZJ5); assay: Dose response cell-based high-throughput screening assay to measure PERK inhibition. [Related pubchem assays: 1416 ]; assay type: functional
# [28] = molecular target: T8, Eukaryotic translation initiation factor 2-alpha kinase 3; assay: Counterscreen assay for PERK inhibitors: Dose response cell-based high throughput screening assay to measure inhibition of PERK at 6 hours. [Related pubchem assays: 1522, 1416 ]; assay type: functional
# Leucine aminopeptidase = molecular target: T9, Leucine aminopeptidase (Plasmodium falciparum 3D7, UniProt Q8IL11); assay: P. falciparum M17LAP inhibitors, primary screen, biochemical, fluorogenic H-Leu-NHMec substrate, 1536-well (AID 1619); assay type: functional
# T9 sequence (Q8IL11 whole entry): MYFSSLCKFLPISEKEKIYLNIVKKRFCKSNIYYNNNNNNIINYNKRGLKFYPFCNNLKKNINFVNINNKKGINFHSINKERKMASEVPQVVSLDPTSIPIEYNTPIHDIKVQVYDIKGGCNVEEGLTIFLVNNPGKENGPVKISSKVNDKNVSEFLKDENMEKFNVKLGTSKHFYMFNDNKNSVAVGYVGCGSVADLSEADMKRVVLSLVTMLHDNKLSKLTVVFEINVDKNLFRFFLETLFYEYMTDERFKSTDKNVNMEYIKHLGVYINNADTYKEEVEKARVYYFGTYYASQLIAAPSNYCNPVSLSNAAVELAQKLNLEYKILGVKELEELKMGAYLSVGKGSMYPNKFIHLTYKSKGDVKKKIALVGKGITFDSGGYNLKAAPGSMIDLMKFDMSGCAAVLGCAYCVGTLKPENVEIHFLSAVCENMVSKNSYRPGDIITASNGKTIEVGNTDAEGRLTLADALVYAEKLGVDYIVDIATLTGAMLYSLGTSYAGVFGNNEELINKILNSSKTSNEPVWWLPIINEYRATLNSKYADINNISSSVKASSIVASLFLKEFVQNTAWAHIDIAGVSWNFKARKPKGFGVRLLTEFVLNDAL
# [29] = Cytotoxicity screening for potential Inhibitors of Bacterial Capsule Biogenesis. [Related pubchem assays (depositor defined):AID488970]; assay type: functional
# [30] = molecular target: T10, Voltage-gated N-type calcium channel alpha-1B subunit/Amyloid beta A4 precursor protein-binding family A member 1 (Homo sapiens, UniProt Q00975+Q02410); assay: disruptors of Mint-PDZ/N-type channel peptide interaction – biochemical, HTRF, set 2, SAR follow-up (AID 434980); assay type: functional
# [31] = molecular target: T10, Voltage-gated N-type calcium channel alpha-1B subunit/Amyloid beta A4 precursor protein-binding family A member 1; assay: disruptors of Mint-PDZ/N-type channel peptide interaction – biochemical, HTRF, SAR follow-up (AID 2489); assay type: functional
# T8 sequence (Q9NZJ5 whole entry): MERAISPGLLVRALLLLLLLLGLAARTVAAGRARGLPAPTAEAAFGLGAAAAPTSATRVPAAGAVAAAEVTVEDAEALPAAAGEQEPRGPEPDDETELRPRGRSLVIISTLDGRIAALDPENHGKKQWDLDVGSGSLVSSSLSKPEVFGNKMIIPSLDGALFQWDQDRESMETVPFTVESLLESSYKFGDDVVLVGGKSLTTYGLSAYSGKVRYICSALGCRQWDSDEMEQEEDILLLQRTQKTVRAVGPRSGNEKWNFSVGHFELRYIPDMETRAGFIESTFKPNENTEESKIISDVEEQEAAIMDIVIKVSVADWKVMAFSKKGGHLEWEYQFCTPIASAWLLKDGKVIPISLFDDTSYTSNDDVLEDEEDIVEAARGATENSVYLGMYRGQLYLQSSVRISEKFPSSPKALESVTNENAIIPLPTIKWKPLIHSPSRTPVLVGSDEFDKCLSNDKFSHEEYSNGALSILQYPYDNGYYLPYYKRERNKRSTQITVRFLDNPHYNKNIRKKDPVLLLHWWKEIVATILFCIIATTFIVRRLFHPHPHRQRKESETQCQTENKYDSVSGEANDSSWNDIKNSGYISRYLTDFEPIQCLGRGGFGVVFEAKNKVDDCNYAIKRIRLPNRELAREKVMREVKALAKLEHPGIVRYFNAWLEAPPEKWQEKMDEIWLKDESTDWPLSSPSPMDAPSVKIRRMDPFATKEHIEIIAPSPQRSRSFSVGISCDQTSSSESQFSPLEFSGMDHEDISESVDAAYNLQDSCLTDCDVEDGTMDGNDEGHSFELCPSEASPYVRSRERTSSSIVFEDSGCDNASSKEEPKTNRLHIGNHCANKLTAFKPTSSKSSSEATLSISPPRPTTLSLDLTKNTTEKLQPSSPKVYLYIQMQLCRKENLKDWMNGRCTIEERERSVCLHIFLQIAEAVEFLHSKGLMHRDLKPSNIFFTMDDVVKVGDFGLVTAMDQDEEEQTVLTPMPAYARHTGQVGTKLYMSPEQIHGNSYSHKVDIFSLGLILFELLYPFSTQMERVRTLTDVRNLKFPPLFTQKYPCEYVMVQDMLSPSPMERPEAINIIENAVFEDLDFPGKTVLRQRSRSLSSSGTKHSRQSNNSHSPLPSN
# T1 sequence (P49327 whole entry, the tested form may be a part): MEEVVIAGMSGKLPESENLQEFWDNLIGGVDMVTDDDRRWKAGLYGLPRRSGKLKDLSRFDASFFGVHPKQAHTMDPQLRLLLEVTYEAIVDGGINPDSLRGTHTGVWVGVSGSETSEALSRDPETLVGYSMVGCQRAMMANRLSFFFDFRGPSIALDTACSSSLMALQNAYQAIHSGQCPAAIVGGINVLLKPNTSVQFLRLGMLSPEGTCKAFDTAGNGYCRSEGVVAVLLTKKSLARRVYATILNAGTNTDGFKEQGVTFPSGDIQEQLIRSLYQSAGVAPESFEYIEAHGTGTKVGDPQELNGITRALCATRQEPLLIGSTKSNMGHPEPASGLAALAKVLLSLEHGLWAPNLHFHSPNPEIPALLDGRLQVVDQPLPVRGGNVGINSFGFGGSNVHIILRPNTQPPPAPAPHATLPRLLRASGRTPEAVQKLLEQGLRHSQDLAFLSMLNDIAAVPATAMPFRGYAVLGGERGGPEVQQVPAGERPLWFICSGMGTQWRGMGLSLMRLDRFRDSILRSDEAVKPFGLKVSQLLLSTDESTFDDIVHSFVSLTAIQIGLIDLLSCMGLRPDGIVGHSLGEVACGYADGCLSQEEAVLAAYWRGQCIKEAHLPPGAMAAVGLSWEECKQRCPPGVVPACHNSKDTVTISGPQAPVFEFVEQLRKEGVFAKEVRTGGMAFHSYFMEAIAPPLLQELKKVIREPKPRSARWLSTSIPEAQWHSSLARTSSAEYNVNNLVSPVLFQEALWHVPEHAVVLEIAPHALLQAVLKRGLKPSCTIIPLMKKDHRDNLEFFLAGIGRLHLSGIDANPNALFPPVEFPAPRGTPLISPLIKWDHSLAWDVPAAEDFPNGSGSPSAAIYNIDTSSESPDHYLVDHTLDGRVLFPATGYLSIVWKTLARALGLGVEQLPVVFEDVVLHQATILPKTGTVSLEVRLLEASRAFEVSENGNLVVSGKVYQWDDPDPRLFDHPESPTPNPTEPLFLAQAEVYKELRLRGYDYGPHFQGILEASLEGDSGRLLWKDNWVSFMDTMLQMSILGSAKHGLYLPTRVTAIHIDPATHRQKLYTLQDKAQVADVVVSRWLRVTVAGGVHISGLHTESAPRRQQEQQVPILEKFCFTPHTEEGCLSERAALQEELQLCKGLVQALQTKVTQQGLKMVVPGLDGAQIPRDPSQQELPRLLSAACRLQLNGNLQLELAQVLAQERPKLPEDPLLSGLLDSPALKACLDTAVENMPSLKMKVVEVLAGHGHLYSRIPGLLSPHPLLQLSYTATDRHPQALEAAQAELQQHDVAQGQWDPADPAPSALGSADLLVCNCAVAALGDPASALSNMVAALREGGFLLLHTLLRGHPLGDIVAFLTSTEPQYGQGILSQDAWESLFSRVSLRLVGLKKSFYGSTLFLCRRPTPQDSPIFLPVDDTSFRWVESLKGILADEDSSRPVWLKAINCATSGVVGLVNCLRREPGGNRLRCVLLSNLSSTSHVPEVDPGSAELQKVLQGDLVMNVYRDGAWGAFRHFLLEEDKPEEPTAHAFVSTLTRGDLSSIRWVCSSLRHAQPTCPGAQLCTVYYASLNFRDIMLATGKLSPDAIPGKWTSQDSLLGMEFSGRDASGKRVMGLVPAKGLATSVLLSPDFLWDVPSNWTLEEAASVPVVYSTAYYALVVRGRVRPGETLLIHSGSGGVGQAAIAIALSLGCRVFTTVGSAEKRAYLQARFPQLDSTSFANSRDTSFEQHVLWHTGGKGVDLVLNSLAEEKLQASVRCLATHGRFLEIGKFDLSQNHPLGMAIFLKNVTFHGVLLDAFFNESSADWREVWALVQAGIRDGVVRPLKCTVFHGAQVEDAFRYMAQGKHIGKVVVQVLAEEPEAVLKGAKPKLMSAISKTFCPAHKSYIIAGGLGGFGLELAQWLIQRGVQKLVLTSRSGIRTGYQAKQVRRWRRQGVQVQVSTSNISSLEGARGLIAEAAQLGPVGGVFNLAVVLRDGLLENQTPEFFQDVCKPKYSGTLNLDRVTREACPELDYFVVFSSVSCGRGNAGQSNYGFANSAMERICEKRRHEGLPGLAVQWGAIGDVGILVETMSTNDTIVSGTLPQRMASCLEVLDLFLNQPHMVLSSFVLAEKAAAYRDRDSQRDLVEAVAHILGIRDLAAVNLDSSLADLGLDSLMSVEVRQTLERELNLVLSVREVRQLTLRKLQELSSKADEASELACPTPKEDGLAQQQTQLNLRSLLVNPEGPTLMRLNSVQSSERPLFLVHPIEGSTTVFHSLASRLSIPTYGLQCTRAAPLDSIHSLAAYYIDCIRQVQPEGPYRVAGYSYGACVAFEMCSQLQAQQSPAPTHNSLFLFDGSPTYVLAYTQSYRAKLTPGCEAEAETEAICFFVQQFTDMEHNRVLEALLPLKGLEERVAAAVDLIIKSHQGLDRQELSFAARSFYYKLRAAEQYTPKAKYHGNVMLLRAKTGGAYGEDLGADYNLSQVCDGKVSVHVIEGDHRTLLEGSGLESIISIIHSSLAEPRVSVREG
# T5 sequence (Q92731 whole entry, the tested form may be a part): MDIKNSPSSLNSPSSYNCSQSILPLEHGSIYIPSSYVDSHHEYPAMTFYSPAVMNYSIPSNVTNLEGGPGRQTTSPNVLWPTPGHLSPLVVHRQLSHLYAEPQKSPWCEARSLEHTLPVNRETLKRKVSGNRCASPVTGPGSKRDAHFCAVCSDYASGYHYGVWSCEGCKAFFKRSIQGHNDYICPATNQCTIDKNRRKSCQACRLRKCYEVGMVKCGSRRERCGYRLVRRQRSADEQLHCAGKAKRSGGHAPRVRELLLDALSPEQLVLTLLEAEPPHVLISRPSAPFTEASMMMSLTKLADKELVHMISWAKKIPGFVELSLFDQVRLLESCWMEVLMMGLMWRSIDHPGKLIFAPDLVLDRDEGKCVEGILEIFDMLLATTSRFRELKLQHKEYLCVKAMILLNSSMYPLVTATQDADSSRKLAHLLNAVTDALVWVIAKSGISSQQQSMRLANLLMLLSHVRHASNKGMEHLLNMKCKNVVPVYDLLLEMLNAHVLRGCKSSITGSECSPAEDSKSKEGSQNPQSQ
# T4 sequence (P0DMV8 whole entry): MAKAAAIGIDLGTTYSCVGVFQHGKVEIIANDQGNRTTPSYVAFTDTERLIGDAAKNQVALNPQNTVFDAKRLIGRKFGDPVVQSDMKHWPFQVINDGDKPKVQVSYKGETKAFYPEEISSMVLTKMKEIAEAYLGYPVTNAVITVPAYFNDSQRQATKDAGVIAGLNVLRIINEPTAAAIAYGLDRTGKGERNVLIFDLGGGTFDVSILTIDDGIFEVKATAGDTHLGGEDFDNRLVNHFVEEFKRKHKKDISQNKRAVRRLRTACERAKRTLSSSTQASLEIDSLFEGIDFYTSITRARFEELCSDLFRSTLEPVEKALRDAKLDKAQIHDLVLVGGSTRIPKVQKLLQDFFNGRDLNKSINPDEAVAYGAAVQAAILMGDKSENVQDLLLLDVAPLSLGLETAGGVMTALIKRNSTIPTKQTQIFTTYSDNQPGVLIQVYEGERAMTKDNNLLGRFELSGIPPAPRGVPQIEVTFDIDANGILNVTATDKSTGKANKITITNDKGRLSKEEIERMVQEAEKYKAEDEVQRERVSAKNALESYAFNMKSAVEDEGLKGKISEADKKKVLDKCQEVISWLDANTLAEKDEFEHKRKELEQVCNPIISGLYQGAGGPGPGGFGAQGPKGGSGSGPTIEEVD
# Sequence of Dual specificity protein phosphatase 3 (P51452 whole entry): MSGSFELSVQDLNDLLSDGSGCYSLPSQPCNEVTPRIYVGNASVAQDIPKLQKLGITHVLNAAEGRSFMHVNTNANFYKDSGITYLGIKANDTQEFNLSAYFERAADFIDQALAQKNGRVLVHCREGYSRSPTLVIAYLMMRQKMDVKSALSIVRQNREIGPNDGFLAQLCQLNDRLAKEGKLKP
structure (smiles),measurement,setting,value
Cc1ccc(-c2ccccc2)n1-c1ccc(O)c(C(=O)O)c1,Ki,[1],80.3 µM (inactive)
N=C(N)NS(=O)(=O)c1ccc(NC(=S)NC(=O)Cc2ccc(Cl)cc2)cc1,IC50,[2],21.8 µM (not active)
CC(C)CN1C(=O)/C(=C/c2c[nH]nc2-c2ccccc2)SC1=S,AC50,[3],2.59 µM (active)
same,EC50,[4],15 µM (active)
COc1cc(/C=C(\C#N)c2nc3ccccc3s2)cc([N+](=O)[O-])c1O,EC50,[5],> 150 µM (inactive)
same,IC50,Fatty acid synthase [6],12.4 µM (active)
same,EC50,[7],> 38 µM (not active)
same,IC50,[8],33.7 µM (active)
same,IC50,Aminopeptidase N,11 µM (active)
same,IC50,[9],> 50 µM (active)
same,IC50,Fatty acid synthase [10],10 µM (active)
CCC(C)(C)C1CCc2n[nH]c(C(=O)NCCN3CCOCC3)c2C1 (stereo not drawn),AC50,[11],20.9 µM (active)
CC1(C)CCCN(C(=O)c2coc(=O)c(Br)c2)C1,IC50,cells [12],> 29.9 µM (inactive)
same,IC50,[13],5.23 µM (active)
same,IC50,[14],14 µM (active)
same,EC50,[15],68.3 µM (active)
same,IC50,Bcl-2-like protein 10,6.54 µM (active)
same,EC50,[16],0.827 µM (active)
same,IC50,[17],13.1 µM (active)
same,IC50,Estrogen receptor beta [18],< 1.56 µM (active)
same,EC50,[19],> 300 µM (not active)
same,IC50,Estrogen receptor beta [20],93.2 µM (not active)
same,AC50,HeLa,96.3 µM (active)
same,IC50,[21],2.41 µM (active)
same,AC50,Cytochrome P450 2C9,28.2 µM (inconclusive)
same,EC50,cells [22],> 29.9 µM (inactive)
same,IC50,[23],21.2 µM (active)
same,IC50,[24],8.32 µM (active)
same,AC50,ORF 73,71.2 µM (active)
same,IC50,[25],> 10 µM (not active)
same,IC50,Ephrin type-A receptor 4,8.98 µM (active)
same,IC50,[26],2.92 µM (active)
CC(C)C(=O)NNc1ccc(C(F)(F)F)cn1,EC50,[27],> 55.7 µM (not active)
same,EC50,[28],> 55.7 µM (not active)
CC1(C(=O)O)CCC(C(=O)Nc2ccc3ccccc3c2)C1(C)C (stereo not drawn),IC50,Leucine aminopeptidase,12.5 µM (active)
same,CC50,[29],> 100 µM (active)
O=C(NCCc1ccncc1)c1cc(-c2ccco2)nc2ccccc12,IC50,[30],> 56.8 µM (inactive)
same,IC50,[31],> 56.8 µM (inactive)
